According to US8629251B2, “Specific detection and quantification of phosphatidic acid using an Arabidopsis trigalactosyldiacylglycerol-4 (TGD4) protein” (Board of Trustees of Michigan State University, priority 2008, dated 2014):
Values belong to the molecule of their own block, whether it stands above or below them. Where no end group is shown, it is not given here.

Legend:
[1] = biological target: T1, Arabidopsis TGD4, DsRED-TGD4-His, full-length TGD4 1-479 (SEQ ID NO: 132) (Arabidopsis thaliana, UniProt Q9M903); assay: Liposome association assay, DsRED-TGD4-His; assay type: binding; conditions: 40 mol % PtdOH and 60 mol % PtdCho liposomes, FIG. 18C, D
T1 sequence (Q9M903 1-479): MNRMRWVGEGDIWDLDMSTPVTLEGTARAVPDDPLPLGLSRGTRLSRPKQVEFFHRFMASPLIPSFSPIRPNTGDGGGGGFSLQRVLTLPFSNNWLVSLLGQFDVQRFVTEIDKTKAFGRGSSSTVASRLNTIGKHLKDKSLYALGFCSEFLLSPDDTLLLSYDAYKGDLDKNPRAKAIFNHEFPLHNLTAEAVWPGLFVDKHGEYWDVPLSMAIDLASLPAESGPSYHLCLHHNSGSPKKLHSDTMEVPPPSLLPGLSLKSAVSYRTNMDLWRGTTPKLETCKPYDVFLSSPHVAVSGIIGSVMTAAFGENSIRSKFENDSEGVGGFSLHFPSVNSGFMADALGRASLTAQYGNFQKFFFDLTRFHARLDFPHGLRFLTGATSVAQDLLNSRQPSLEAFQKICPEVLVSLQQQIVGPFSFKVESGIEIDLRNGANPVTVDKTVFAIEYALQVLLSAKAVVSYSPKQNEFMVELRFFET
Description: Liposome Association Assay:
(§1) The liposome association assay was adapted from (Awai et al., 2006, Lu and Benning, 2009) with minor modifications. Dioleoyl-PtdCho and PtdOH with different acyl chain lengths and desaturation levels were used for making liposomes. In other liposomes 1-palmitoyl-2-(12-((7-nitro-2-1,3-benzoxadiazol-4-yl)amino)dodecanoyl)-sn-glycero-3-phosphate (NBD-PtdOH; Avanti, Alabaster, Ala.) was used. The lipids were mixed at indicated ratios to give a total lipid amount of 250 μg. The lipids were dried under a stream of nitrogen, resuspended in 0.5 ml TBS buffer with 0.2 M choline chloride and hydrated at 37° C. for 1 hour followed by vigorous vortexing for 2 minutes. The resulting multi-lamellar vesicles were centrifuged at 13,000×g for 10 minutes and then washed once with TBS buffer containing 0.2 M choline chloride. The liposomes were resuspended into 100 μl TBS buffer with 0.2 M choline chloride and incubated with 2 μg purified DsRED-TGD4-His protein and its derivatives. The protein liposome mixture was incubated on ice for 30 minutes followed by centrifugation at 13,000×g for 10 minutes and two washes with 500 μl TBS containing 0.2 M choline chloride. The resulting protein-liposome pellet was resuspended in 20 μl 2× Laemmli buffer (Laemmli, 1970) and processed by SDS-PAGE (Shapiro and Maizel, 1969).

[2] = Liposome-association assay of DsRed-TGD2 fusion proteins; assay type: binding; conditions: PA/PC or 100% PA liposomes
Description: (§2) In this assay, purified recombinant proteins were incubated with liposomes for 30 min at 30° C. before centrifugation at 20,000 g for 10 min to pellet the liposomes. Proteins bound to the liposomes were found associated with the lipid pellet, whereas non-binding proteins remained in the supernatant. In an effort to determine the optimal concentration of PA required for high specificity binding, a PA/PC liposome mixture containing varying weight fractions of PA was prepared and incubated with DsRed-TGD2CWT or DsRed alone.
(§3) The liposome association assay was performed as previously reported. (31). Briefly, lipids (dioleoyl-phosphatidylcholine, DOPC or dioleoyl-PA, DOPA) were incubated in TBS (50 mM Tris-HCl, pH 7; 0.1 M NaCl) at 37° C. for an hour followed by vigorous vortexing for 5 min. The liposomes were precipitated at 20,000 g and washed twice with ice-cold TBS.
(§4) Liposomes (200 μg) were mixed with purified DsRed-TGD2 fusion protein and TBS to make a final 100 μL solution. […] The liposome pellet mixed with sample buffer was analyzed by SDS-PAGE (28). […]
(§5) The protein band was visualized by chemiluminescent detection kit from Sigma. The autoradiography film was scanned, distinct protein bands were quantified using computer software Multi Gauge V3.0 (Fujifilm USA, Valhalla, N.Y.) and resulted data were plotted and analyzed by OriginPro8 (Origin lab corporation, Northampton, Mass.).

DsRED-TGD4-His = biological target: T2, DsRED-TGD4-His (Arabidopsis thaliana, UniProt Q9M903); assay: Precipitation / stabilizer test of DsRED-TGD4-His; assay type: physicochemical; conditions: 5 μg protein with stabilizer, 4° C., 2 hours, 13,000×g pellet by SDS-PAGE
T2 construct: the DsRED protein was fused to the N-terminus of the full-length TGD4 protein; made in house; host or cells: E. coli BL21 (DE3)
T2 sequence (Q9M903 1-479): T1 sequence (Q9M903 1-479)
Description: FIG. 23A: 5 μg DsRED-TGD4-His was incubated with various protein stabilizers at 4° C. for 2 hours followed by centrifugation at 13,000×g for 10 minutes. The pellet was analyzed by SDS-PAGE. TBS: Tris-buffered saline, Glycerol: 20% glycerol; PEG: 20% polyethylene; Pectin: 5% pectin; ChoCl: 1 M choline chloride; Glycine: 1 M glycine; Urea: 1 M urea; BSA: 0.5 mg/ml bovine serum albumin; PBS: phosphate-buffered saline.
FIG. 23B: 5 μg DsRED-TGD4-His was treated with either 2 M sodium chloride or choline chloride as described above.
Lipid binding properties of TGD4 were investigated by producing TGD4 fused to DsRED. The DsRED protein is a red fluorescent protein of the coral Discosoma sp. (Gross et al., 2000, herein incorporated by reference).

[3] = biological target: T3, Arabidopsis TGD2, DsRed-TGD2C WT (DR-WT) fusion protein, residues 119-381, SEQ ID NO:107 (Arabidopsis thaliana, UniProt Q9LTR2); assay: Liposome-association assay (mixed PA/PC liposomes), DsRed-TGD2C WT; assay type: binding; conditions: PC, PA/PC or PA liposomes, FIG. 3B
T3 construct: made in house; host or cells: Escherichia coli BL21 (DE3)
T3 sequence (Q9LTR2 119-381): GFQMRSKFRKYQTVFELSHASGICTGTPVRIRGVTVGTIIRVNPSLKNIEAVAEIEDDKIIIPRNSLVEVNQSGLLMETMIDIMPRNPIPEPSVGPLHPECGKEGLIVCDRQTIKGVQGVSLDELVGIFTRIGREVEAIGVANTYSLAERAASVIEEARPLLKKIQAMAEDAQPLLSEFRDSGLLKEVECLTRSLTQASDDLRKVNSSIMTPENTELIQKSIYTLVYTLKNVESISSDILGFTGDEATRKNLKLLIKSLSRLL
Description: FIG. 2A: Analysis by liposome-association assay. A mixture of dioleoyl-PA and dioleoyl-PC was used where the weight percent of PA was varied from 0-100% (wt/wt), maintaining the total lipid invariant at 250 μg. 1 μg protein was used. P, protein recovered in the absence of lipids.
as §2, §3
(§6) Liposomes (200 μg) were mixed with purified DsRed-TGD2 fusion protein and TBS to make a final 100 μL solution. The mixture was incubated at 30° C. for 30 min and washed twice with ice-cold TBS by centrifugation at 20,000 g at 4° C. The liposome pellet mixed with sample buffer was analyzed by SDS-PAGE (28). Immuno-detection of the His-tagged protein was accomplished using the above mentioned Penta-His antibody at 1:15,000 and the anti mouse antibody at 1:75,000 dilution.
as §5

[4] = biological target: Arabidopsis TGD2, DsRed fusion of the 25-mer minimal domain (residues 201-225, SEQ ID NO:12), K221A (Arabidopsis thaliana, UniProt Q9LTR2, K221A); assay: Liposome-association assay, point mutant K221A of the minimal domain; assay type: binding; conditions: PC liposomes; any of the constructs
Arabidopsis TGD2, DsRed fusion of the 25-mer minimal domain (residues 201-225, SEQ ID NO:12), K221A, sequence (Q9LTR2 201-225 K221A): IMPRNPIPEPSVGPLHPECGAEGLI
Description: Some reports have identified that TGD2 PA-binding regions involve basic amino acids and/or tryptophan residues (10). […] Based on sequence similarity of TGD2 to its closely related homologs in plants and green algae, several charged and/or conserved amino acids were picked as potential interesting residues in the 25-mer minimal domain for possibly mediating interactions with PA. An alanine screen was then performed to evaluate these residues within a minimal PA binding region of TGD2 (i.e., for example, SEQ ID NO:12). Point mutations were generated in the 25-mer minimal domain and fused with DsRed to test PA binding by liposome-association assay using 100% PA liposomes.
The liposome association assay was performed as previously reported. (31). […]
as §4, §5

[5] = system: DsRed protein (Discosoma sp. red fluorescent protein); assay: Liposome-association assay, DsRed control; assay type: binding; conditions: FIG. 3B
Description: as §3, §6, §5

[6] = biological target: T4, Arabidopsis TGD2, N-terminally truncated TGD2-dTMD-His (from Gly-119) (Arabidopsis thaliana, UniProt Q9LTR2); assay: Liposome binding assay, TGD2-dTMD-His; conditions: phosphatidylcholine liposomes with or without PA (6:4 wt/wt)
T4 sequence (Q9LTR2 119-381): T3 sequence (Q9LTR2 119-381)
Description: The liposome binding assay was performed as previously reported. Sano et al., (1998) J. Biol. Chem. 273:4783-4789. Lipids (i.e., for example, phosphatidylcholine or a mixture of phosphatidylcholine and PA at 6:4 wt/wt) were incubated in TBS (50 mM Tris/HCl, pH 7/0.1M NaCl) at 37° C. for 1 hour followed by vigorous vortexing for 5 min. The liposomes were precipitated at 20,000×g and washed twice with ice-cold TBS.
Liposomes (200 μg) were mixed with purified TGD2 protein lacking the TMD (10 μg/ml) and TBS to make 100 μl of solution. The mixture was incubated at 30° C. for 30 min and washed twice with ice-cold TBS by centrifugation at 20,000×g at 4° C. The liposome pellet mixed with sample buffer was analyzed by SDS/PAGE. Laemmli, U. K. (1970) Nature 227, 680-685. Immunodetection of the His-tagged protein was accomplished by using the above-mentioned Penta-His antibody at 1:6,000 and the anti-mouse antibody at 1:10,000 dilutions. The BCIP/NBT Kit from Bio-Rad was used for color detection.

[7] = Protein-lipid overlay assay of DsRED-TGD4 fusion proteins; assay type: binding
Description: The protein-lipid overlay assay was modified from (Awai et al., 2006, Lu and Benning, 2009). Phosphoinositol-4,5-bisphosphate PIP2) lipid strips were purchased from Echelon Biosciences (Salt Lake City, Utah). Lipids spotted onto membranes were purchased from Avanti Polar Lipids (Alabaster, Al.) as well as Larodan Fine Chemicals (Malmo, Sweden). Lipids (10 nmol) were suspended in 20 μl spotting buffer (250 μl chloroform, 500 μl methanol, 200 μl 50 mM HCl, 2 μl 1% (w/v) Ponseau S (Sigma, St. Louis, Mo.)) and spotted onto Amersham Hybond-C Extra membranes (GE Healthcare, Piscataway, N.J.) followed by drying for 1 hour in a fume hood. The lipid membranes were then blocked in 3% (w/v) bovine serum albumin (BSA) in TBST buffer (TBS with 0.25% (v/v) Tween 20) for 2 hours at room temperature. Purified DsRED-TGD4-His fusion proteins were added at 1 μg/ml final concentration and incubated overnight at 4° C. followed by washing 3 times in TBST. Lipid membranes were then incubated with 1:2000 diluted His antibody (Sigma) in blocking buffer for 2 hours at room temperature followed by 2 washes with TBST. The membranes were processed for immunoblotting as described below.

[8] = Liposome association assay of DsRED-TGD4-His and derivatives; assay type: binding; conditions: dioleoyl-PtdOH/dioleoyl-PtdCho liposomes, 0 to 80% PtdOH by weight, FIG. 19
Description: as §1

- binding to PtdOH species in liposomes [1]: appeared to be stronger
Molecule: CCCCCCCCCCCCCCCCCC(=O)OC[C@H](COP(=O)(O)O)OC(=O)CCCCCCCCCCCCCCCCC [distearoyl PtdOH, distearoyl phosphatidic acid]

- binding to PtdOH species in liposomes [1]: did not bind
Molecule: CCCCCCCCCCCCCCCC(=O)OC[C@H](COP(=O)(O)O)OC(=O)CCCCCCCCCCCNc1ccc([N+](=O)[O-])c2nonc12 [1-palmitoyl-2-(12-((7-nitro-2-1,3-benzoxadiazol-4-yl)amino)dodecanoyl)-sn-glycero-3-phosphate]

- binding to PtdOH species in liposomes [1]: bind
Molecule: CCCCCCCCCCCCCCCC(=O)OC[C@H](COP(=O)(O)O)OC(=O)CCCCCCCCCCCCCCC [dipalmitoyl PtdOH, dipalmitoyl phosphatidic acid]

- PA binding in liposome-association assay ([2]; listed as region between residues 201 and 225 (SEQ ID NO:12)): much less overall binding
Molecule: DR-25: DsRed fused to the TGD2 minimal PA binding domain, residues 201-225 (SEQ ID NO: 12) (IMPRNPIPEPSVGPLHPECGKEGLI; also: fused to DsRed, end not given here; UniProt Q9LTR2 201-225, looked up, fragment)
- PA binding in liposome-association assay ([2]; listed as 25-amino-acid segment): necessary and sufficient for PtdOH binding

Continued, molecule first:

Molecule: C[N+](C)(C)CCO.[Cl-] [Choline chloride, choline chloride]
- stabilization of DsRED-TGD4-His against precipitation (DsRED-TGD4-His): minimize precipitation
- stabilization of DsRED-TGD4-His against precipitation (DsRED-TGD4-His; listed as choline chloride): stabilized DsRED-TGD4-His

Molecule: [Cl-].[Na+] [NaCl, sodium chloride]
- stabilization of DsRED-TGD4-His against precipitation (DsRED-TGD4-His): not able to stabilize DsRED-TGD4-His

Molecule: CCCCCCCC/C=C\CCCCCCCC(=O)OC[C@H](COP(=O)([O-])OCC[N+](C)(C)C)OC(=O)CCCCCCC/C=C\CCCCCCCC [PC, phosphatidylcholine]
- binding to PA or PC [3]: no interaction
- PC-liposome binding [4]: No detectable PC-liposome binding
- binding to PC or PA [5]: does not display binding
- liposome binding [6]: did not bind

B1: DsRED-His: DsRED-His protein itself, control without TGD4 (protein, UniProt Q9U6Y8 1-225, looked up)
Red fluorescent protein …: MRSSKNVIKEFMRFKVRMEGTVNGHEFEIEGEGEGRPYEGHNTVKLKVTKGGPLPFAWDILSPQFQYGSKVYVKHPADIPDYKKLSFPEGFKWERVMNFEDGGVVTVTQDSSLQDGCFIYKVKFIGVNFPSDGPVMQKKTMGWEASTERLYPRDGVLKGEIHKALKLKDGGHYLVEFKSIYMAKKPVQLPGYYYVDSKLDITSHNEDYTIVEQYERTEGRHHLFL
modifications: His-tag
notes: DsRED-His protein itself, control without TGD4
- lipid binding in overlay, phospholipids ([7]; commercially available membranes, FIG. 18A): not observed to bind to any of the lipids on either membrane tested
- lipid binding in overlay, plant/chloroplast lipids ([7]; lipids manually spotted onto membranes, FIG. 18B): not observed to bind to any of the lipids on either membrane tested
- PtdOH binding affinity of TGD4 derivatives [8]: Except for DsRED-His alone, tested recombinant fusion proteins bound to PtdOH-containing liposomes
